Measured values taken from ChEMBL document CHEMBL3885861, “Open TG-GATES”.

Organism: Rattus norvegicus
Assay: Open TG-GATES - Regimen: Daily Repeat
Type: toxicity, organism-based, Sprague-Dawley
Design: regimen Daily Repeat, gender Male, age 6 weeks
Settings: in vivo, po, 300 mg/kg, route gavage, dose level Middle; for APTT / Bas / Eos / Fbg / Hb / Ht / Lym / MCH / MCHC / MCV / Mono / Neu / PT / Plat / RBC / Ret / WBC: tissue Blood; for KIDNEY_L / KIDNEY_R / KIDNEY_TOTAL: tissue Kidney; for LIVER: tissue Liver; for A/G / ALP / ALT / AST / BUN / CRE / Ca / Cl / DBIL / GLC / IP / K / LDH / Na / PL / RALB / TBIL / TC / TG / TP / gamma-GTP: tissue Plasma

Compound: CC[C@@H](CO)NCCN[C@@H](CC)CO [ETHAMBUTOL]
- TERMINAL_BW (72 h, time 3 day): 239.4 g
- APTT (72 h, time 3 day): 21.6 s
- Bas (72 h, time 3 day): 0%
- Eos (72 h, time 3 day): 1%
- Fbg (72 h, time 3 day): 330.2 mg/dL
- Hb (72 h, time 3 day): 13.7 g/dL
- Ht (72 h, time 3 day): 40%
- Lym (72 h, time 3 day): 75%
- MCH (72 h, time 3 day): 21.8 pg
- MCHC (72 h, time 3 day): 34.3%
- MCV (72 h, time 3 day): 63.4 fL
- Mono (72 h, time 3 day): 3%
- Neu (72 h, time 3 day): 19.4%
- PT (72 h, time 3 day): 15.9 s
- Plat (72 h, time 3 day): 113.3 x10_4/uL
- RBC (72 h, time 3 day): 630 x10_4/ul
- Ret (72 h, time 3 day): 6.3%
- WBC (72 h, time 3 day): 92.4 x10_2/uL
- KIDNEY_L (72 h, time 3 day): 1 g
- KIDNEY_R (72 h, time 3 day): 1.1 g
- KIDNEY_TOTAL (72 h, time 3 day): 2.1 g
- LIVER (72 h, time 3 day): 12.5 g
- A/G (72 h, time 3 day): 1.3
- ALP (72 h, time 3 day): 1720.4 IU/L
- ALT (72 h, time 3 day): 43 IU/L
- AST (72 h, time 3 day): 71 IU/L
- BUN (72 h, time 3 day): 17.6 mg/dL
- CRE (72 h, time 3 day): 0.2 mg/dL
- Ca (72 h, time 3 day): 10.7 mg/dL
- Cl (72 h, time 3 day): 108 meq/L
- DBIL (72 h, time 3 day): 0 mg/dL
- GLC (72 h, time 3 day): 209.6 mg/dL
- IP (72 h, time 3 day): 7.6 mg/dL
- K (72 h, time 3 day): 3.9 meq/L
- LDH (72 h, time 3 day): 164.2 IU/L
- Na (72 h, time 3 day): 140.8 meq/L
- PL (72 h, time 3 day): 163.4 mg/dL
- RALB (72 h, time 3 day): 3.2 g/dL
- TBIL (72 h, time 3 day): 0.01 mg/dL
- TC (72 h, time 3 day): 90.2 mg/dL
- TG (72 h, time 3 day): 87.6 mg/dL
- TP (72 h, time 3 day): 5.7 g/dL
- gamma-GTP (72 h, time 3 day): 1.4 IU/L
- TERMINAL_BW ([…], time 7 day): 262.8 g
- TERMINAL_BW ([…], time 14 day): 299.9 g
- TERMINAL_BW ([…], time 28 day): 296 g
- APTT ([…], time 7 day): 20.8 s
- Bas ([…], time 7 day): 0%
- Eos ([…], time 7 day): 0.8%
- Fbg ([…], time 7 day): 303.8 mg/dL
- Hb ([…], time 7 day): 14.2 g/dL
- Ht ([…], time 7 day): 41.4%
- Lym ([…], time 7 day): 82.2%
- MCH ([…], time 7 day): 20.7 pg
- MCHC ([…], time 7 day): 34.3%
- MCV ([…], time 7 day): 60.2 fL
- Mono ([…], time 7 day): 2.4%
- Neu ([…], time 7 day): 13%
- PT ([…], time 7 day): 16.4 s
- Plat ([…], time 7 day): 113.9 x10_4/uL
- RBC ([…], time 7 day): 688.8 x10_4/ul
- Ret ([…], time 7 day): 4.2%
- WBC ([…], time 7 day): 98.6 x10_2/uL
- APTT ([…], time 14 day): 20.4 s
- Bas ([…], time 14 day): 0%
- Eos ([…], time 14 day): 1%
- Fbg ([…], time 14 day): 274.2 mg/dL
- Hb ([…], time 14 day): 14.2 g/dL
- Ht ([…], time 14 day): 42.3%
- Lym ([…], time 14 day): 82.2%
- MCH ([…], time 14 day): 19.2 pg
- MCHC ([…], time 14 day): 33.7%
- MCV ([…], time 14 day): 57 fL
- Mono ([…], time 14 day): 2.4%
- Neu ([…], time 14 day): 13.2%
- PT ([…], time 14 day): 16.8 s
- Plat ([…], time 14 day): 86.9 x10_4/uL
- RBC ([…], time 14 day): 742.8 x10_4/ul
- Ret ([…], time 14 day): 2.3%
- WBC ([…], time 14 day): 118.5 x10_2/uL
- APTT ([…], time 28 day): 21.4 s
- Bas ([…], time 28 day): 0%
- Eos ([…], time 28 day): 1.2%
- Fbg ([…], time 28 day): 257.5 mg/dL
- Hb ([…], time 28 day): 14.6 g/dL
- Ht ([…], time 28 day): 42.3%
- Lym ([…], time 28 day): 77.2%
- MCH ([…], time 28 day): 17.9 pg
- MCHC ([…], time 28 day): 34.5%
- MCV ([…], time 28 day): 51.8 fL
- Mono ([…], time 28 day): 2.8%
- Neu ([…], time 28 day): 17.2%
- PT ([…], time 28 day): 17.8 s
- Plat ([…], time 28 day): 82.7 x10_4/uL
- RBC ([…], time 28 day): 817.8 x10_4/ul
- Ret ([…], time 28 day): 2%
- WBC ([…], time 28 day): 127.3 x10_2/uL
- KIDNEY_L ([…], time 7 day): 1.1 g
- KIDNEY_R ([…], time 7 day): 1.1 g
- KIDNEY_TOTAL ([…], time 7 day): 2.2 g
- KIDNEY_L ([…], time 14 day): 1.3 g
- KIDNEY_R ([…], time 14 day): 1.3 g
- KIDNEY_TOTAL ([…], time 14 day): 2.6 g
- KIDNEY_L ([…], time 28 day): 1.2 g
- KIDNEY_R ([…], time 28 day): 1.3 g
- KIDNEY_TOTAL ([…], time 28 day): 2.5 g
- LIVER ([…], time 7 day): 12.5 g
- LIVER ([…], time 14 day): 15.8 g
- LIVER ([…], time 28 day): 14.5 g
- A/G ([…], time 7 day): 1.1
- ALP ([…], time 7 day): 1774.8 IU/L
- ALT ([…], time 7 day): 60.2 IU/L
- AST ([…], time 7 day): 92.2 IU/L
- BUN ([…], time 7 day): 20.4 mg/dL
- CRE ([…], time 7 day): 0.2 mg/dL
- Ca ([…], time 7 day): 10.2 mg/dL
- Cl ([…], time 7 day): 107.4 meq/L
- DBIL ([…], time 7 day): 0.002 mg/dL
- GLC ([…], time 7 day): 172.2 mg/dL
- IP ([…], time 7 day): 7.9 mg/dL
- K ([…], time 7 day): 4 meq/L
- LDH ([…], time 7 day): 196 IU/L
- Na ([…], time 7 day): 142.2 meq/L
- PL ([…], time 7 day): 141.4 mg/dL
- RALB ([…], time 7 day): 2.8 g/dL
- TBIL ([…], time 7 day): 0.026 mg/dL
- TC ([…], time 7 day): 73 mg/dL
- TG ([…], time 7 day): 43.2 mg/dL
- TP ([…], time 7 day): 5.3 g/dL
- gamma-GTP ([…], time 7 day): 1.8 IU/L
- A/G ([…], time 14 day): 1.1
- ALP ([…], time 14 day): 2103.2 IU/L
- ALT ([…], time 14 day): 68 IU/L
- AST ([…], time 14 day): 115.2 IU/L
- BUN ([…], time 14 day): 24.4 mg/dL
- CRE ([…], time 14 day): 0.2 mg/dL
- Ca ([…], time 14 day): 9.8 mg/dL
- Cl ([…], time 14 day): 106.4 meq/L
- DBIL ([…], time 14 day): 0.02 mg/dL
- GLC ([…], time 14 day): 197 mg/dL
- IP ([…], time 14 day): 7.2 mg/dL
- K ([…], time 14 day): 4.6 meq/L
- LDH ([…], time 14 day): 520.6 IU/L
- Na ([…], time 14 day): 139.8 meq/L
- PL ([…], time 14 day): 139.8 mg/dL
- RALB ([…], time 14 day): 2.6 g/dL
- TBIL ([…], time 14 day): 0.042 mg/dL
- TC ([…], time 14 day): 79.4 mg/dL
- TG ([…], time 14 day): 26.4 mg/dL
- TP ([…], time 14 day): 4.9 g/dL
- gamma-GTP ([…], time 14 day): 1.8 IU/L
- A/G ([…], time 28 day): 1
- ALP ([…], time 28 day): 1083.5 IU/L
- ALT ([…], time 28 day): 66.5 IU/L
- AST ([…], time 28 day): 136 IU/L
- BUN ([…], time 28 day): 19.2 mg/dL
- CRE ([…], time 28 day): 0.2 mg/dL
- Ca ([…], time 28 day): 9.4 mg/dL
- Cl ([…], time 28 day): 109.8 meq/L
- DBIL ([…], time 28 day): 0.0275 mg/dL
- GLC ([…], time 28 day): 209 mg/dL
- IP ([…], time 28 day): 6.8 mg/dL
- K ([…], time 28 day): 4.2 meq/L
- LDH ([…], time 28 day): 602.8 IU/L
- Na ([…], time 28 day): 140.5 meq/L
- PL ([…], time 28 day): 117.5 mg/dL
- RALB ([…], time 28 day): 2.6 g/dL
- TBIL ([…], time 28 day): 0.055 mg/dL
- TC ([…], time 28 day): 70.5 mg/dL
- TG ([…], time 28 day): 24.5 mg/dL
- TP ([…], time 28 day): 5.3 g/dL
- gamma-GTP ([…], time 28 day): 1.5 IU/L
